# *1 amine or outer side, *2 acyl side, *3 side chain or, on linkers, in order; H or OH if unused. Where a SMILES comes first, the peptide text is derived from it. The star is where a group is joined. X1 = O=C(CCCC[C@@H]1SC[C@@H]2NC(=O)N[C@@H]21)NCCCOCCOCCOCCCN*; Suc = O=C(CCC(=O)[*:2])[*:1]
# Test system: 266 human PDZ domains (PDZome)
# Test: Holdup assay (chromatographic retention, PDZome-binding profile, BI)
# Design: key to maximal BI / Max BI / BI: binding intensity: 0.00 = no binding, 1.00 = maximal binding; Log(Kd): unit not given here
# Procedure: The holdup method is a chromatographic approach in solution developed in our group that allows to measure the binding strength of a peptide, attached to a resin, against a library of domains of a same family. We initially proposed this method to explore the interaction between PBM peptides and the human PDZ domains. Briefly, a soluble cell lysate containing individually overexpressed PDZ domain is incubated until equilibrium with a calibrated amount of streptavidin-resin saturated either with the target biotinylated PBM peptide or with biotin as a reference. The flow-throughs containing the unbound protein fraction are recovered by filtration and loaded on a capillary electrophoresis instrument to quantify the amount of remaining free PDZ. The stronger the steady-state depletion of the PDZ domain in the flow-through as compared to the reference, the stronger the PDZ/PBM binding interaction. The assay is particularly suited to quantitatively evaluate and compare large numbers of interactions. This method delivers, for each PBM/PDZ pair, a "binding intensity" (BI), whose value can in principle range from 0.00 (no binding event detected) to 1.00 (maximal binding event). The approach has been automated and the human PDZ library was recently extended to the complete 266 PDZ domains known in human proteome. […] The high accuracy and efficiency of the holdup assay have been validated previously. Very recently, a manual version of the holdup assay with purified samples and using widespread benchtop equipment has been implemented and has proven to be reliable.
# The 266 PDZ domains that constitute the PDZ library (“PDZome V.2”) used in the present work were produced using constructs with optimized boundaries as described previously. All the genes were fused to Maltose-Binding Protein (MBP) or Thioredoxin (THR) tag often used to facilitate the solubilisation of the over-expressed protein, by cloning them into the pETG41A or pETG20A plasmid, respectively. […] The expressed tag-PDZ concentrations were quantified using capillary gel electrophoresis and cell lysates were diluted to reach approximately 5 μM tag-PDZ before freezing in 96-well plates. A detailed protocol of the PDZ library production, expression and benchmarking can be found in [32]. PDZ domains are named according to their originating protein name followed by the PDZ number (e.g. NHERF1-1 as the first PDZ domain of the NHERF1 protein).
# The holdup assay was performed on a Tecan freedom Evo200 robot with 384-well plates in singlicate for the three 11-mer PTEN variants and the 13-mer PTEN peptide as described in [31, 32]. Briefly, prior to interaction assay, 2.5 μL of streptavidin resin was saturated in each well with 20 μL of biotinylated PBM peptides (42 μM) and then washed twice with an excess of free biotin, while the reference resin was incubated only with biotin. Right before the holdup experiment, the PDZ library was spiked with an internal standard of lysozyme. Then, the biotin- or PBM-saturated resin was incubated, each in a distinct well of a 384-well plate, with complete cell lysates diluted so that the concentration of the tag-PDZ present in the crude extract is adjusted at 4 μM. After a sufficient time to reach complex equilibrium (15 min.), a fast and mild filtration step is performed and the tag-PDZ concentrations were measured by capillary electrophoresis instrument (LabChip GXII, PerkinElmer, Massachusets, USA). Standard markers were used to convert migration time into molecular weight on the LabChip software and inappropriate molecular weight markers were corrected or excluded.
# Holdup data quality check and processing […]
# [1] = PDZ domain PARD3-1, first of two lines so named (r186)
structure (smiles),measurement,setting,value
CC[C@H](C)[C@H](NC(=O)[C@H](CCC(N)=O)NC(=O)[C@@H](NC(=O)[C@H](Cc1c[nH]cn1)NC(=O)[C@H](CCC(N)=O)NC(=O)[C@H](CC(=O)O)NC(=O)[C@H](CCC(=O)O)NC(=O)[C@H](CC(=O)O)NC(=O)[C@H](Cc1ccccc1)NC(=O)[C@@H]1CCCN1C(=O)CCC(=O)NCCCOCCOCCOCCCNC(=O)CCCC[C@@H]1SC[C@@H]2NC(=O)N[C@@H]21)[C@@H](C)O)C(=O)N[C@H](C(=O)N[C@@H](CCCCN)C(=O)N[C@H](C(=O)O)C(C)C)[C@@H](C)O [PTEN_13] ({X1-Suc}-PFDEDQHTQITKV-OH),number of additional new PDZ partners not detected for PTEN_11,"BI>0.20, compared with PTEN_11",24
same,BI,PDZ domain MPDZ-2,0.095
same,BI,PDZ domain MPDZ-3,0.139
same,BI,PDZ domain MPDZ-4,0.035
same,BI,PDZ domain MPDZ-5,-0.002
same,BI,PDZ domain MPDZ-6,-0.029
same,BI,PDZ domain MPDZ-7,0.23
same,BI,PDZ domain MPDZ-8,0.039
same,BI,"PDZ domain MPDZ-9 (gene NHERF2, 2)",-0.021
same,BI,PDZ domain MPDZ-12,0.024
same,BI,PDZ domain MPDZ-13,0.225
same,BI,PDZ domain MPP1-1,-0.074
same,BI,PDZ domain MPP2-1,-0.014
same,BI,PDZ domain MPP3-1,-0.03
same,BI,PDZ domain MPP4-1,0
same,BI,PDZ domain MPP5-1,0.002
same,BI,PDZ domain MPP6-1,-0.068
same,BI,PDZ domain MPP7-1,-0.02
same,BI,PDZ domain NHERF1-2,0.132
same,BI,PDZ domain NHERF3-1,0.161
same,BI,PDZ domain NHERF3-2,0.06
same,BI,PDZ domain NHERF3-3,0.068
same,BI,PDZ domain NHERF3-4,-0.008
same,BI,PDZ domain NHERF4-1,0.09
same,BI,PDZ domain NHERF4-2,0.132
same,BI,PDZ domain NHERF4-3,0.208
same,BI,PDZ domain NHERF4-4,-0.036
same,BI,PDZ domain NOS1-1,0.002
same,BI,[1],0.146
same,Log(Kd),[1],4.018
same,BI,PDZ domain PARD3-2,-0.023
same,BI,PDZ domain PARD3B-1,-0.096
same,BI,PDZ domain PARD3B-2,0.088
same,BI,PDZ domain PARD3B-3,0.134
same,BI,PDZ domain PARD6A-1,-0.115
same,BI,PDZ domain PARD6G-1,-0.065
same,BI,PDZ domain PCLO-1,-0.006
same,BI,PDZ domain PDLIM1-1,-0.067
same,BI,PDZ domain PDLIM2-1,-0.078
same,BI,PDZ domain PDLIM3-1,0.139
same,BI,PDZ domain PDLIM4-1,0.003
same,BI,PDZ domain PDLIM5-1,-0.025
same,BI,PDZ domain PDLIM7-1,0.039
same,BI,PDZ domain PDZD2-1,-0.006
same,BI,PDZ domain PDZD2-2,0.054
same,BI,PDZ domain PDZD2-3,-0.045
same,BI,PDZ domain PDZD2-4,0.107
same,BI,PDZ domain PDZD2-5,0.195
same,BI,PDZ domain PDZD2-6,-0.066
same,BI,PDZ domain PDZD4-1,0.025
same,BI,PDZ domain PDZD7-1,-0.034
same,BI,PDZ domain PDZD7-2,-0.061
same,BI,PDZ domain PDZD7-3,0.811
same,BI,PDZ domain PDZD8-1,0.038
same,BI,PDZ domain PDZD9-1,0.075
same,BI,PDZ domain PDZD11-1,-0.022
same,BI,PDZ domain PDZRN3-1,0.024
same,BI,PDZ domain PDZRN3-2,0.032
same,BI,PDZ domain PDZRN4-1,-0.022
same,BI,PDZ domain PDZRN4-2,-0.019
same,BI,PDZ domain PICK1-1,0.089
same,BI,PDZ domain PPP1R9A-1,-0.068
same,BI,PDZ domain PPP1R9B-1,-0.064
same,BI,PDZ domain PREX1-1,-0.02
same,BI,PDZ domain PREX1-2,0.087
same,BI,PDZ domain PREX2-1,0.032
same,BI,PDZ domain PREX2-2,-0.046
same,BI,PDZ domain PRX-1,-0.006
same,BI,PDZ domain PSCDBP-1,0.094
same,BI,PDZ domain PSMD9-1,0.022
same,BI,PDZ domain PTPN3-1,0.015
same,BI,PDZ domain PTPN4-1,0.026
same,BI,PDZ domain PTPN13-1,0.009
same,BI,PDZ domain PTPN13-3,-0.036
same,BI,PDZ domain PTPN13-5,0.022
same,BI,PDZ domain RADIL-1,0.092
same,BI,PDZ domain RAPGEF2-1,-0.023
same,BI,PDZ domain RAPGEF6-1,-0.02
same,BI,PDZ domain RGS3-1,0.249
same,BI,PDZ domain RGS12-1,0.04
same,BI,PDZ domain RHPN1-1,0.479
same,BI,PDZ domain RHPN2-1,0.033
same,BI,PDZ domain RIMS1-1,-0.009
same,BI,PDZ domain RIMS2-1,-0.031
same,BI,PDZ domain SCRIB-1,0.173
same,BI,PDZ domain SCRIB-2,-0.031
same,BI,PDZ domain SCRIB-4,-0.007
same,BI,PDZ domain SDCBP2-1,0.022
same,BI,PDZ domain SDCBP2-2,-0.007
same,BI,PDZ domain SDCBP-2,-0.032
same,BI,PDZ domain SHROOM2-1,-0.059
same,BI,PDZ domain SHROOM3-1,-0.047
same,BI,PDZ domain SHROOM4-1,-0.086
same,BI,PDZ domain SIPA1-1,-0.045
same,BI,PDZ domain SIPA1L1-1,0.023
same,BI,PDZ domain SIPA1L2-1,-0.04
same,BI,PDZ domain SIPA1L3-1,-0.026
same,BI,PDZ domain SNTA1-1,0.142
same,BI,PDZ domain SNTB1-1,0.224
same,BI,PDZ domain SNTG1-1,0.14
same,BI,PDZ domain SNTG2-1,0.015
same,number of PDZ domains identified as potential binders (BI>0.20),"holdup, singlicate, threshold BI>0.20",24 PDZ domains
same,maximal BI,"holdup, singlicate, highest BI in the PDZome profile, BI standard error ~0.07",0.81
same,effect on PDZ binding profile (in words),"holdup/FP profile, compared with PTEN_11",markedly stronger compared to the affinities observed for the same PDZ partners in PTEN_11
same,Max BI,maximum over PDZome,0.88

# — article PMC7774954, “Interactomic affinity profiling by holdup assay: Acetylation and distal residues impact the PDZome-binding specificity of PTEN phosphatase” (PLoS ONE, 2020)
